For this assay, the target named is T1, Human Cav3.1 calcium channel (Homo sapiens, UniProt O43497).
T1 construct: expressed in transfected cells; host or cells: HEK-293 natClytin/TASK1+Cav3.1 cell line
In words: Human Cav3.1 calcium channel patch clamp assay (SyncroPatch 384PE; single point and IC50, voltage dependent block). The class given is cell-based. The following applies: for % Inhibition (Single Point Data): patch clamp. The method, then: Certain compounds (as indicated) were tested for Human Cav3.1 calcium channel activity via a patch clamp assay as disclosed herein.
Pulse generation and data collection were performed with PatchController384 V1.3.0 and DataController384 V1.2.1 (Nanion Technologies). Offline analysis was performed using Excel and Graphpad Prism (V 8.4.2) with complete data files uploaded to Dotmatics. The access resistance and apparent membrane capacitance were estimated using built-in protocols. Current was recorded in whole cell configuration from a population of cells. The cells were lifted, triturated, and resuspended at 800,000 cells/ml. The cells were allowed to recover in the cell hotel prior to experimentation. Currents were recorded at room temperature. The external solution contained the following (in mM): NaCl 80, NMDG 60, KCl 4, MgCl2 1, CaCl2 6, glucose 5 and HEPES 10 (pH=7.4, Osmolarity˜300 mOsm). The extracellular solution was used as the wash, reference and compound delivery solution.
The compound plate was created at 2× concentrated in the extracellular solution. The compound was diluted to 1:2 when added to the recording well. The amount of DMSO in the extracellular solution was held constant at the level used for the highest tested concentration. For the voltage clamp experiments on Cav3.1, data were sampled at 10 KHz. After establishment of the seal and the passage in the whole cell configuration, the cells were held at −120 mV. Cav3.1 current was evoked using a 100 ms step to −20 mV (to measure resting state block), followed by a 1600 ms step to −65 mV and a second 100 ms step to −20 mV (to measure voltage dependent block). The voltage protocol was applied every 15 seconds in the absence and in the presence of the compounds under investigation. […] Current amplitude (pA) was measured in the peak 1 and 2. The average of last 3 sweeps of each liquid period (vehicle, compound under investigation, full block) was calculated. Nickel-sensitive current was used to calculate the % of inhibition in the presence of the compound under investigation.
For orientation: The patch-clamp technique gives a direct electrical read-out from membranes.

Setting [1] is: Testing Conc 1, HEK-293 natClytin/TASK1+Cav3.1 cell line.
The mark [2] stands for this setting: voltage dependent block (VDB), HEK-293 natClytin/TASK1+Cav3.1 cell line, read-out: Cav3.1 IC50.
Where [3] appears, read: Testing Conc 1.25, HEK-293 natClytin/TASK1+Cav3.1 cell line.

Where two headings read alike, the source gives them in different places. A value given as a limit tells only on which side of the number the result lay.

Consider 39 molecules from patent US20250213558A1, “T-TYPE CALCIUM CHANNEL MODULATORS COMPRISING A PIPERAZINE OR 1,4-DIAZEPANE CORE AND METHODS OF USE THEREOF” (Praxis Precision Medicines, Inc., priority 2022, published 2025).

A word on the IC50: it is the point on the concentration scale where inhibition reaches its midpoint.

T1 sequence (O43497 whole entry): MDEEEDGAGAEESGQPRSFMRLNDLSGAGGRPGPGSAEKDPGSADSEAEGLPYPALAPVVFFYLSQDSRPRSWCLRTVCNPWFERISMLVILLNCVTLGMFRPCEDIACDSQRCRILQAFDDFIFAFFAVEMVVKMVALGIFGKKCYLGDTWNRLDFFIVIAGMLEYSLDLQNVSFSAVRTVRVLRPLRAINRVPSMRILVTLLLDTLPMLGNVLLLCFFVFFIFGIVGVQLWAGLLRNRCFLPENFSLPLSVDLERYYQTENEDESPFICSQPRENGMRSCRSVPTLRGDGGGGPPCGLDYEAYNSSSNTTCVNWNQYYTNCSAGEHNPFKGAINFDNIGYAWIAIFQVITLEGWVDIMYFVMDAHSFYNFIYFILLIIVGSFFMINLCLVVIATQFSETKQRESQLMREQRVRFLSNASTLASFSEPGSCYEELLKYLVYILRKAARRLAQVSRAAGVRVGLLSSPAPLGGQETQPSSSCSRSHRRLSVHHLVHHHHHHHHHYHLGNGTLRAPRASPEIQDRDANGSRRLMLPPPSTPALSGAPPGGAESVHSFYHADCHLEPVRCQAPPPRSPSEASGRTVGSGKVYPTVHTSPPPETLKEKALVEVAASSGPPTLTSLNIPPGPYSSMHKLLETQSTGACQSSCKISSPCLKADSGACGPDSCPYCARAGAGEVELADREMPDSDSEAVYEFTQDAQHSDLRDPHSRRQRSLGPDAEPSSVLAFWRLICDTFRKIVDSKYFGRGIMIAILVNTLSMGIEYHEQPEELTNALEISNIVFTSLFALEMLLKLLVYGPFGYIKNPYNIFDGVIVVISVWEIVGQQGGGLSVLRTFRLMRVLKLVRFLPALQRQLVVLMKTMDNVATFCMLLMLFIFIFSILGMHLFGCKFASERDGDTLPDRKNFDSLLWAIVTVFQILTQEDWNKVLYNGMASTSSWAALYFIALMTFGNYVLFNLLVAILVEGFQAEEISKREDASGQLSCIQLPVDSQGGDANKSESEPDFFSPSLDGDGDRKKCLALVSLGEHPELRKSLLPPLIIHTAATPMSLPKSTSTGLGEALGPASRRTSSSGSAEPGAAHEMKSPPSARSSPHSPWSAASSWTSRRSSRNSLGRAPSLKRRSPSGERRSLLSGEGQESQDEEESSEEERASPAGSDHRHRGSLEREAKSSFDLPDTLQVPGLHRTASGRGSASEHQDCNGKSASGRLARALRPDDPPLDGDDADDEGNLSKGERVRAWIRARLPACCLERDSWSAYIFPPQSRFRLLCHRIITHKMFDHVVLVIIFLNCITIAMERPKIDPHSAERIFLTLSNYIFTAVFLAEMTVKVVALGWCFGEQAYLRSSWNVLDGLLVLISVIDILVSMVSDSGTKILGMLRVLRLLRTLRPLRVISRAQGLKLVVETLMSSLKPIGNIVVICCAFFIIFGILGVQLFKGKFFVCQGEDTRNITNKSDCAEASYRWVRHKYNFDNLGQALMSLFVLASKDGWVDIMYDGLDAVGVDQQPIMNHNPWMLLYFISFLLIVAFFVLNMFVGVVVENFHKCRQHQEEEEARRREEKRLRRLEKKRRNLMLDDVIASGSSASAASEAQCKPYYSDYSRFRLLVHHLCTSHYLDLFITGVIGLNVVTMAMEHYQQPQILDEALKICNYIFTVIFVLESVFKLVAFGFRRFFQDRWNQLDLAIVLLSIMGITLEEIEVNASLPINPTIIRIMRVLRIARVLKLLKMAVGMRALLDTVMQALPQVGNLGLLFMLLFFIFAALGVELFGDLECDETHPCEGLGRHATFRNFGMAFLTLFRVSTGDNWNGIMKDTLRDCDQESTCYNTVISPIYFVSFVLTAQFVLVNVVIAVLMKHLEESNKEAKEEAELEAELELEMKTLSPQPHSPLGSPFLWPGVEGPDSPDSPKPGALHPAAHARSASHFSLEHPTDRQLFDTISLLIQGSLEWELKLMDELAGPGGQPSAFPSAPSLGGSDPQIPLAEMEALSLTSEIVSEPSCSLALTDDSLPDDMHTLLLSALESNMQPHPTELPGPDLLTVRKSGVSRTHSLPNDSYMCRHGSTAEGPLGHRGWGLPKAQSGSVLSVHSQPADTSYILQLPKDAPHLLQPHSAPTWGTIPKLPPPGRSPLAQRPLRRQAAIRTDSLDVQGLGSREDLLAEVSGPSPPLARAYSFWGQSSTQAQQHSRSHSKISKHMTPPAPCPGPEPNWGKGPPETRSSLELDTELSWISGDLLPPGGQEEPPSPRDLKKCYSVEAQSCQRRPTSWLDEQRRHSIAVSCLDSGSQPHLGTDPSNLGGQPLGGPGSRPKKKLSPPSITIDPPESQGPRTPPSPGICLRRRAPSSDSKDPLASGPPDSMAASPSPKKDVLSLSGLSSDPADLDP

On to `CC(C)(C)NC(=O)CN1CCN(CC(=O)Nc2noc3ccccc23)CC1` [Compound 41], for which the “% Inhibition (Single Point Data)” value under setting [1] is 38.937%. Moreover, the IC50 under setting [2] came to 316 nM.

With `COCC1CN(CC(=O)NC(C)(C)C)CCN1CC(=O)Nc1cc(F)cc(Cl)c1` (centres unmarked) [Compound 42], under setting [1], the “% Inhibition (Single Point Data)” value worked out at 62.5%. For the same molecule, the IC50 under setting [2] worked out at 627 nM.

With `CC(C)(C)NC(=O)CN1CCN(Cc2cnc(-c3ccccc3)[nH]2)CC1` [Compound 43], the “% Inhibition (Single Point Data)” value under setting [1] came out at 29.301%.

Consider `CC(C)(C)NC(=O)CN1CCN(CC(=O)Nc2cc(F)cc(Cl)c2)C2(COC2)C1` [Compound 44], for which the “% Inhibition (Single Point Data)” value under setting [3] came out at 50%. In addition, the IC50 under setting [2] was 1210 nM.

Consider `CC(C)(C)NC(=O)CN1CC[C@H](CNc2nccc3ccc(Cl)cc23)CC1=O` [Compound 45], for which, under setting [3], the “% Inhibition (Single Point Data)” value was 58.802%.

On to `CC(C)(C)NC(=O)CN1CC[C@@H](CNc2nccc3ccc(Cl)cc23)CC1=O` [Compound 46], for which the 50% inhibitory concentration (IC50) under setting [2] came out at 600 nM.

For `CC(C)(NC(=O)CN1CC2CC1CN2CC(=O)Nc1cc(F)cc(Cl)c1)C(F)(F)F` (centres unmarked) [Compound 47], the “% Inhibition (Single Point Data)” value under setting [3] is 89.371%. Moreover, the IC50 under setting [2] worked out at 33.7 nM.

As to `CC(C)(C)NC(=O)CN1CC2CC1CN2CC(=O)Nc1cc(Cl)ccc1F` (centres unmarked) [Compound 48], the “% Inhibition (Single Point Data)” value under setting [3] is 28.07%. In addition, the IC50 under setting [2] was found to be 1340 nM.

As for `O=C(CN1CC2CC(C1)N2CC(F)C1CCCCC1)Nc1cc(F)cc(Cl)c1` (centres unmarked) [Compound 49], under setting [3], the “% Inhibition (Single Point Data)” value turned out to be 44.843%. In addition, the IC50 under setting [2] turned out to be 1160 nM.

With `CC(C)(C)S(=O)(=O)CCN1C2CC1CN(CC(=O)Nc1cc(F)cc(Cl)c1)C2` [Compound 50], the “% Inhibition (Single Point Data)” value under setting [3] turned out to be 57.816%.

Consider `N#CC1(CN2C3CC2CN(CC(=O)Nc2cc(F)cc(Cl)c2)C3)CCCCC1` [Compound 51], for which the “% Inhibition (Single Point Data)” value under setting [3] stood at 29.781%. Further, the IC50 under setting [2] was determined as 1440 nM.

With `N#CC1(CN2C3CC2CN(CC(=O)Nc2cc(F)cc(Cl)c2)C3)CCC(F)(F)CC1` [Compound 52], the “% Inhibition (Single Point Data)” value under setting [3] came to 51.764%. Besides, under setting [2], the IC50 came to 853 nM.

With `CC(C)(NC(=O)CN1CCN(CC(=O)Nc2cc(F)cc(OC(F)F)c2)CC1)C(F)(F)F` [Compound 53], the “% Inhibition (Single Point Data)” value under setting [3] is reported as 57.147%. Moreover, the IC50 under setting [2] was 1010 nM.

With `O=C(CN1CCN(CC(=O)NC2(C(F)(F)F)CC2)CC1)Nc1cc(F)cc(OC(F)F)c1` [Compound 54], the “% Inhibition (Single Point Data)” value under setting [3] came to 39.211%. Also, under setting [2], the IC50 came out at 1560 nM.

Turning to `CC(C)(NC(=O)CN1CC2CC1CN2CC(=O)Nc1cc(F)cc(OC(F)F)c1)C(F)(F)F` (centres unmarked) [Compound 55], the “% Inhibition (Single Point Data)” value under setting [3] is on record as 76.829%.

With `O=C(CN1CC2CC1CN2CC(=O)NC1(C(F)(F)F)CC1)Nc1cc(F)cc(OC(F)F)c1` (centres unmarked) [Compound 56], the “% Inhibition (Single Point Data)” value under setting [3] is 70.217%. The IC50 under setting [2] stood at 297 nM.

Regarding `[2H]C([2H])([2H])C(NC(=O)CN1CC2CC1CN2CC(=O)Nc1cc(F)cc(Cl)c1)(C([2H])([2H])[2H])C([2H])([2H])[2H]` (centres unmarked) [Compound 57], under setting [3], the “% Inhibition (Single Point Data)” value is 95.078%.

Regarding `CC(C)(C)NC(=O)CN1C[C@@H]2C[C@H]1CN2CC(=O)Nc1cc(F)cc(Cl)c1` [Compound 58], the “% Inhibition (Single Point Data)” value under setting [3] is 91.889%.

For the molecule `CC(C)(C)NC(=O)CN1C[C@H]2C[C@@H]1CN2CC(=O)Nc1cc(F)cc(Cl)c1` [Compound 59], the “% Inhibition (Single Point Data)” value under setting [3] was 49.275%. For the same molecule, the IC50 under setting [2] amounted to 925 nM.

Regarding `CC(C)(C)NC(=O)CN1C[C@@H]2C[C@H]1CN2CCNc1nccc2ccc(Cl)cc12` [Compound 60], the “% Inhibition (Single Point Data)” value under setting [3] worked out at 60.189%. The IC50 under setting [2] worked out at 605 nM.

`CC(C)(C)NC(=O)CN1CCN(Cc2nnc(-c3cc(F)cc(Cl)c3)[nH]2)CC1` [Compound 61, N-tert-butyl-2-[4-[[5-(3-chloro-5-fluoro-phenyl)-4H-1,2,4-triazol-3-yl]methyl]piperazin-1-yl]acetamide]: under setting [1], the “% Inhibition (Single Point Data)” value was 40.739%. Besides, under setting [2], the IC50 worked out at 2800 nM.

As to `CC(C)(C)NC(=O)CN1C2CC1CN(Cc1nc3c(Cl)cc(F)cc3[nH]1)C2` [Compound 62, N-(tert-butyl)-2-(3-((4-chloro-6-fluoro-1H-benzo[d]imidazol-2-yl)methyl)-3,6-diazabicyclo[3.1.1]heptan-6-yl)acetamide], the IC50 was below 78.2 nM. Besides, the “% Inhibition (Single Point Data)” value under setting [3] worked out at 102.05%.

Take `CC(C)(C)NC(=O)CN1CC2CCC1CN2Cc1nc2c(Cl)cc(F)cc2[nH]1` (centres unmarked) [Compound 63]: the “% Inhibition (Single Point Data)” value under setting [3] is listed as 93.839%. In addition, under setting [2], the IC50 amounted to 167 nM.

In the case of `CC(C)(C)NC(=O)CN1C2CCC1CN(Cc1nc3c(Cl)cc(F)cc3[nH]1)C2` [Compound 64], the IC50 is below 78.2 nM. Under setting [3], the “% Inhibition (Single Point Data)” value was 100.15%.

Regarding `CC(C)(C)NC(=O)CN1C2CCC1CN(Cc1nc3c(Cl)cc(F)cc3[nH]1)CC2` (centres unmarked) [Compound 65], the “% Inhibition (Single Point Data)” value under setting [3] was found to be 82.104%. Under setting [2], the IC50 is 708 nM.

Turning to `COc1cccc(CN2CCN(Cc3nc4c(Cl)cc(F)cc4[nH]3)CC2)c1` [Compound 66], the “% Inhibition (Single Point Data)” value under setting [3] was 88.018%. Moreover, under setting [2], the IC50 came out at 306 nM.

For `Fc1cc(Cl)c2nc(CN3CCN(Cc4cccc(Cl)c4)CC3)[nH]c2c1` [Compound 67], the “% Inhibition (Single Point Data)” value under setting [3] worked out at 83.039%. Further, the IC50 under setting [2] amounted to 490 nM.

With `Fc1cc(Cl)c2nc(CN3CCN(Cc4ccc5c(c4)OCCO5)CC3)[nH]c2c1` [Compound 68], under setting [3], the “% Inhibition (Single Point Data)” value is given as 87.04%. Under setting [2], the IC50 worked out at 215 nM.

For the molecule `Fc1cc(Cl)c2nc(CN3CCN(CCc4ccccc4)CC3)[nH]c2c1` [Compound 69], the “% Inhibition (Single Point Data)” value under setting [3] is listed as 86.68%. Moreover, under setting [2], the concentration for half-maximal inhibition (IC50) turned out to be 394 nM.

Take `CC(C)(C)NC(=O)CN1CCCN(Cc2nc3c(Cl)cc(F)cc3[nH]2)CC1` [Compound 70]: the “% Inhibition (Single Point Data)” value under setting [3] was 87.175%. For the same molecule, under setting [2], the IC50 came out at 545 nM.

As to `Fc1cc(Cl)c2nc(CN3CCN(CCC4CCCC4)CC3)[nH]c2c1` [Compound 71], the “% Inhibition (Single Point Data)” value under setting [3] came to 94.005%.

With `Fc1cc(Cl)c2nc(CN3CCN(Cc4cc5ccccc5[nH]4)CC3)[nH]c2c1` [Compound 72], the “% Inhibition (Single Point Data)” value under setting [3] worked out at 81.94%. The IC50 under setting [2] was determined as 395 nM.

In the case of `CC(C)(C)CCN1CCN(Cc2nc3c(Cl)cc(F)cc3[nH]2)CC1` [Compound 73], the “% Inhibition (Single Point Data)” value under setting [3] came out at 84.745%. Further, under setting [2], the IC50 turned out to be 188 nM.

With `CC(C)(C)NC(=O)CN1CC2CCC1CCN2Cc1nc2c(Cl)cc(F)cc2[nH]1` (centres unmarked) [Compound 74], the “% Inhibition (Single Point Data)” value under setting [3] stood at 72.584%. For the same molecule, under setting [2], the IC50 came to 575 nM.

With `CCC(C)(C)NC(=O)CN1C2CCC1CN(Cc1nc3c(Cl)cc(F)cc3[nH]1)C2` [Compound 75], under setting [3], the “% Inhibition (Single Point Data)” value is 99.169%.

As to `CC(C)(NC(=O)CN1C2CCC1CN(Cc1nc3c(Cl)cc(F)cc3[nH]1)C2)C(F)(F)F` [Compound 76], the “% Inhibition (Single Point Data)” value under setting [3] was found to be 100.39%.

With `CC(C)(C)CCN1C2CCC1CN(Cc1nc3c(Cl)cc(F)cc3[nH]1)C2` [Compound 77], under setting [3], the “% Inhibition (Single Point Data)” value is reported as 100.45%.

On to `O=C(CN1C2CCC1CN(Cc1nc3c(Cl)cc(F)cc3[nH]1)C2)N1CCCCC1` [Compound 78], for which the “% Inhibition (Single Point Data)” value under setting [3] was 97.937%.

For `CC(C)(CO)NC(=O)CN1C2CCC1CN(Cc1nc3c(Cl)cc(F)cc3[nH]1)C2` [Compound 79], under setting [3], the “% Inhibition (Single Point Data)” value is 100%.
